In ChEMBL document CHEMBL1149496, “Dissecting the determinants of cyclin-dependent kinase 2 and cyclin-dependent kinase 4 inhibitor selectivity” (J Med Chem, 2006):

Target: Cyclin-dependent kinase 4 (Homo sapiens, UniProt P11802)
Assay: Inhibition of CDK4

Cyclin-dependent kinase 4, sequence (P11802 whole entry): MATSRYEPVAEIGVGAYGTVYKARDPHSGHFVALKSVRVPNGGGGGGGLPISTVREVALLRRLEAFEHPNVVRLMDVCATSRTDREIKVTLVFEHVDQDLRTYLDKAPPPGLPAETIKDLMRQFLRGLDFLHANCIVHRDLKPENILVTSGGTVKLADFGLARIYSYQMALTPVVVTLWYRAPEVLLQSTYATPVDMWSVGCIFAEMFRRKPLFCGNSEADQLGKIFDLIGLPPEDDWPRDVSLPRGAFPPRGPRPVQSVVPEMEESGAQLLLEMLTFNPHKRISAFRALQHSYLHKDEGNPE

**Q.** With `Cc1ccc(Cl)c(N(CC#N)c2cc(Nc3ccc(OC[C@@H](O)CN(C)C)cc3)ncn2)c1` as the compound, how does the IC50 read?
**A.** Its IC50 is 47 nM.
